{"source": "patent US8092790B2", "about": "“Methods of making formulations to affect insect behavior and/or bird behavior” (Bug Buster, Ltd., priority 2003, dated 2012)", "key": {"[1]": {"test_system": "fruit flies (Drosophila spp.)", "assay": "Attraction of fruit flies, sticky trap with treated surface", "assay_type": "in vivo", "excerpt": "An exemplary compound, methyl anthranilate, was combined with fatty acid and used to attract insects, in particular, fruit flies (Drosophila spp.). This exemplary compound will also repel at least some birds. […] An exemplary compound, methyl anthranilate, was combined with fatty acid and applied to a surface (e.g., a treated surface) of a sticky trap and used to attract and to trap insects, in particular, fruit flies (Drosophilia spp.). This exemplary compound will also repel at least some birds.\nA trial compared insect attraction for an untreated surface of a sticky trap and with a treated surface of a sticky trap.\nFor example, grape crushing and/or fermenting may release competitive agents."}, "[2]": {"test_system": "corn ear worm (Heliothus zea)", "assay": "Crop field trials with lambda cyalothrin insecticide, corn ear worm larvae", "assay_type": "in vivo", "excerpt": "An exemplary compound, methyl anthranilate, was combined with fatty acid and applied to crop fields (again, this formulation will also repel at least some birds), contemporaneously, an insecticide having a pyrethrin, lambda cyalothrin, as an active ingredient was applied to crop fields (e.g., WARRIOR™).\nIn another trial, an insecticide that included a pyrethrin, lambda cyalothrin, was applied to crop fields (e.g., WARRIOR™). […] Later, an exemplary compound, methyl anthranilate, combined with a fatty acid, was applied to the same crop field. […] An exemplary composition included an exemplary compound, methyl anthranilate, fatty acid and an insecticide that included a pyrethrin, lambda cyalothrin, as an active ingredient (e.g., WARRIOR™). The exemplary composition was applied to crop fields."}, "[3]": {"test_system": "banded sunflower moth (Cochylis hospes), sunflower seed head larvae", "assay": "Sunflower field application, seed head larvae", "assay_type": "in vivo", "settings": "BIRDSHIELD at 0.006%, approx. two weeks after ASANA; within a minute of application", "excerpt": "An insecticide such as ASANA™ (active ingredient esfenvalerate) is suitable for use in controlling banded sunflower moth (Cochylis hospes). An exemplary composition that included an exemplary compound, methyl anthranilate (e.g., BIRDSHIELD™), was applied to sunflowers.\n(§1) An insecticide, ASANA™, was applied to sunflowers. Approximately two weeks later, an exemplary compound, methyl anthranilate (e.g., BIRDSHIELD™ at 0.006%) was applied to the same sunflowers. […] This behavior caused the larvae to fall off of the flower portions of the sunflowers. In addition, the exemplary compound affected behavior of other insects on the treated sunflowers."}, "mites and spiders": {"test_system": "mites and spiders", "assay": "Sunflower field application, other insects on treated sunflowers", "assay_type": "in vivo", "settings": "BIRDSHIELD at 0.006%, approx. two weeks after ASANA", "excerpt": "as §1"}, "[4]": {"test_system": "larvae in a laboratory growing medium", "assay": "Application to larvae in laboratory growing medium", "assay_type": "in vivo", "settings": "control group remained in growing medium", "excerpt": "Trials involved applying an exemplary compound to larvae in a laboratory growing medium.\nAn exemplary compound, methyl anthranilate (e.g., BIRDSHIELD™) was applied to insects that were first allowed to adapt to a laboratory environment. A control group of insects were not exposed to the exemplary compound."}, "insects": {"test_system": "insects", "assay": "Glue coated cardboard traps in a field", "assay_type": "in vivo", "description": "Trials were performed using an exemplary compound as part of a trapping device (e.g., a glue coated cardboard surface). Five traps were each treated with a 1 ml solution of 0.0156%, 0.03125%, 0.0625%, 0.125% and 0.25% methyl anthranilate, respectively. The treated traps were then placed at relatively random locations in a field. An untreated trap was placed adjacent to each treated trap and the number of insects adhered to each trap recorded as a function of time."}, "[5]": {"test_system": "corn ear worm (Heliothus zea)", "assay": "Exemplary compound applied after insecticide, sweet corn", "assay_type": "in vivo", "excerpt": "An exemplary compound, methyl anthranilate, was applied to sweet corn after the crop had been treated with an insecticide (e.g., the pyrethrin insecticide WARRIOR™) to control corn ear worm (Heliothus zea). Prior to application of the exemplary compound, few if any larvae, which typically reside in the developing ear, were observed on the ground around the corn stalks.\nAfter applying the exemplary compound, methyl anthranilate, at a concentration of approximately 4.5 oz."}, "[6]": {"test_system": "striped sunflower head moth larvae", "assay": "Exemplary compound on sunflowers previously sprayed with esfenvalerate, moth larvae emerging", "assay_type": "in vivo", "excerpt": "An exemplary compound, methyl anthranilate, was combined with long chain fatty acids. An exemplary method applied the mixture to fifteen maturing sunflowers in the interior of two fields that were previously sprayed with an insecticide, esfenvalerate (e.g., the insecticide product ASANA™). The mixture that included the exemplary compound was applied by spraying the mixture across the head of each flower (e.g., where seeds exist). The number of striped sunflower head moth larvae and weevils, emerging from the seeds, was recorded."}, "ant nest": {"test_system": "ant nest", "assay": "Treatment of ant nest", "assay_type": "in vivo", "settings": "diluted form; about 24 hours post-application", "excerpt": "An exemplary method includes applying an exemplary compound or an exemplary composition to an insect nest."}, "Aenictus": {"test_system": "Aenictus", "settings": "in vivo; cited from earlier work"}, "Camponotus spp.": {"test_system": "Camponotus spp.", "settings": "in vivo; cited from earlier work"}, "Ceranisus menes": {"test_system": "Ceranisus menes", "settings": "in vivo; cited from earlier work"}, "T. tabaci": {"test_system": "T. tabaci", "settings": "in vivo; cited from earlier work"}}}
{"compound": "COC(=O)c1ccccc1N", "note": "[methyl anthranilate]", "values": [{"measurement": "attraction of fruit flies", "setting": "[1]; combined with fatty acid", "value": "attracted fruit flies"}, {"measurement": "effectiveness in a competitive environment", "setting": "[1]; grape crushing and/or fermenting may release competitive agents", "value": "may be diminished in a competitive environment"}, {"measurement": "insects on treated surface of sticky trap", "setting": "[1]; in less than one minute, only a few insects on untreated surface", "value": "covered with insects"}, {"measurement": "corn ear worm larvae on the ground", "setting": "[2]; combined with a fatty acid, applied later to field already treated with lambda cyalothrin, within a day", "value": "littered the ground"}, {"measurement": "corn ear worm larvae on the ground", "setting": "[2]; combined with fatty acid, applied contemporaneously with lambda cyalothrin insecticide (WARRIOR), within a day of treatment", "value": "littered the ground"}, {"measurement": "appearance of sunflower seed head larvae", "setting": "[3]", "value": "began to appear on the surface of the sunflowers"}, {"measurement": "behavior of mites and spiders on treated sunflowers", "setting": "mites and spiders", "value": "observed to appear from spaces between maturing seeds and to subsequently fall off the flower portion of the sunflowers"}, {"measurement": "behavior of exposed insects", "setting": "[4]", "value": "emerged quickly from the laboratory growing medium"}, {"measurement": "number of insects adhered to trap", "setting": "insects; 0.0156 percent, 1 min", "value": 3}, {"measurement": "number of insects adhered to trap", "setting": "insects; 0.0156 percent, 5 min", "value": 22}, {"measurement": "number of insects adhered to trap", "setting": "insects; 0.0156 percent, 10 min", "value": 75}, {"measurement": "number of insects adhered to trap", "setting": "insects; 0.0156 percent, 20 min", "value": ">75"}, {"measurement": "number of insects adhered to trap", "setting": "insects; 0.0313 percent, 1 min", "value": 5}, {"measurement": "number of insects adhered to trap", "setting": "insects; 0.0313 percent, 5 min", "value": 15}, {"measurement": "number of insects adhered to trap", "setting": "insects; 0.0313 percent, 10 min", "value": 68}, {"measurement": "number of insects adhered to trap", "setting": "insects; 0.0313 percent, 20 min", "value": ">68"}, {"measurement": "number of insects adhered to trap", "setting": "insects; 0.0625 percent, 1 min", "value": 7}, {"measurement": "number of insects adhered to trap", "setting": "insects; 0.0625 percent, 5 min", "value": 35}, {"measurement": "number of insects adhered to trap", "setting": "insects; 0.0625 percent, 10 min", "value": 128}, {"measurement": "number of insects adhered to trap", "setting": "insects; 0.0625 percent, 20 min", "value": ">128"}, {"measurement": "number of insects adhered to trap", "setting": "insects; 0.1250 percent, 1 min", "value": 15}, {"measurement": "number of insects adhered to trap", "setting": "insects; 0.1250 percent, 5 min", "value": 62}, {"measurement": "number of insects adhered to trap", "setting": "insects; 0.1250 percent, 10 min", "value": 256}, {"measurement": "number of insects adhered to trap", "setting": "insects; 0.1250 percent, 20 min", "value": ">256"}, {"measurement": "number of insects adhered to trap", "setting": "insects; 0.2500 percent, 1 min", "value": 43}, {"measurement": "number of insects adhered to trap", "setting": "insects; 0.2500 percent, 5 min", "value": 84}, {"measurement": "number of insects adhered to trap", "setting": "insects; 0.2500 percent, 10 min", "value": 346}, {"measurement": "number of insects adhered to trap", "setting": "insects; 0.2500 percent, 20 min", "value": ">346"}, {"measurement": "insects on the ground around the corn stalks", "setting": "[5]; approximately 4.5 oz. (127 g) per acre by aircraft, after WARRIOR treatment", "value": "a significant number of insects were observed on the ground"}, {"measurement": "worms in the corn ears at harvest", "setting": "[5]; insecticide (WARRIOR) and methyl anthranilate", "value": "did not contain any significant number of worms"}, {"measurement": "Number of Moth Larvae, Mean", "setting": "[6]; Field No 2", "value": 0.86}, {"measurement": "Number of Moth Larvae, Total", "setting": "[6]; Field No 2", "value": 6}, {"measurement": "Number of Moth Larvae, Mean", "setting": "[6]; Field No. 1", "value": 0.57}, {"measurement": "Number of Moth Larvae, Total", "setting": "[6]; Field No. 1", "value": 4}, {"measurement": "drawing larvae and weevils out of the seeds", "setting": "[6]; after the crop had been treated with the insecticide alone", "value": "successful in drawing striped sunflower head math larvae out of the seeds"}, {"measurement": "ant activity at the site of the nest", "setting": "ant nest", "value": "no ant activity was observed"}, {"measurement": "semiochemical function for Aenictus", "setting": "Aenictus", "value": "trail semiochemicals"}, {"measurement": "effect on Camponotus spp.", "setting": "Camponotus spp.", "value": "trigger flight of sexuals from nest"}, {"measurement": "attraction of Ceranisus menes", "setting": "Ceranisus menes", "value": "are attracted"}, {"measurement": "attraction of T. tabaci", "setting": "T. tabaci", "value": "did not attract"}]}
